Key:
[1] = test system: HL-60, human proleukemia cells; assay: Cell-MTS cellular proliferation assay, HL-60; format: cell-based; conditions: Homo sapiens, HL-60 cells, 168 hr incubation
Description: (§1) A colorimetric cellular proliferation assay (Cell-MTS assay) was performed to assess the ability of the heterocyclic derivative […] inhibitors disclosed herein to effect the proliferation of established cancer cell lines.
(§2) The Cell-MTS assay is a 7-day plate-based colorimetric assay which quantifies the amount of newly generated NADH in the presence or absence of test compound. The NADH level is used for the quantification of cancer cell proliferation.
(§3) Established cancer cell lines with a variety of driving mutations were obtained from American Type Culture Collection (ATCC) and routinely passaged according to ATCC protocols. For routine assay, these cells were seeded at densities which enabled ˜90% confluence after 7 days of culture. Raji, human Burkitts lymphoma cells, (cMYC) were seeded at 15,000 cells per 96-well. HL-60, human proleukemia cells, (NRAS, p16, p53, c-Myc amplified) were seeded at 5,000 cells per 96-well. NCI-H460, human non-small cell lung cancer cells. (KRAS, PIK3CA, STLK11, p16) were seeded at 3,000 cells per 96-well. 24 hr after plating, cells received an 11 point dilution of test compound with final concentration ranges from 100 µM to 2.0 nM. Cells were incubated in the presence of compound for 168 hr at 37° C., and 5% CO2. At the end of this incubation period, 80 µL of media is removed and 20 µL of CellTiter 96® AQueous Non-Radioactive Cell Proliferation Assay solution (Promega) was added. The cells were incubated until the OD490 was >0.6. IC50 values were calculated using the IDBS XLfit software package and include background subtracted OD490 values and normalization to DMSO controls. Cellular proliferation IC50 values were uploaded and archived using the Chem Biography Platform. Table 3 provides the results of the in vitro enzyme inhibition assay experiments and the in vitro cell-based assay experiments performed with the compounds disclosed herein: […]

[2] = target: BRD4(BD1) (Homo sapiens (Human), UniProt O60885); assay: In vitro enzyme inhibition assay (BRD4 AlphaScreen, H4-tetraacetyl peptide); format: binding; conditions: BRD4(BD1) 2 nM, peptide 15 nM
Description: Determination of the IC50 for the heterocyclic derivative BRD4 inhibitors disclosed herein was performed as follows. His-tagged […] was cloned, expressed and purified to homogeneity. Filipakopoulos et al., 468 Nature 1067 (2010). BRD4 binding and inhibition was assessed by monitoring the interaction of biotinylated H4-tetraacetyl peptide (AnaSpec, H4K5/8/12/16(Ac), biotin—labeled) with the target using the AlphaScreen technology (Life Technologies). In a 384-well ProxiPlate BRD4(BD1) (2 nM final) was combined with peptide (15 nM final) in 50 mM HEPES (pH 7.3), 10 mM NaCl, 0.25 mM TCEP, 0.1% (w/v) BSA, and 0.005% (w/v) Brij-35 either in the presence of DMSO (final 0.4% DMSO) or compound dilution series in DMSO. After 20 min incubation at RT, Alpha streptavidin donor beads and Nickel Chelate acceptor beads were added to a final concentration of 5 μg/mL. After 2 hr of equilibration, plates were read on an Envision instrument and the IC50 was calculated using a four parameter non-linear curve fit.
The ability of the compounds disclosed herein to inhibit BRD4 activity was quantified and the respective IC50 value was determined.

[3] = test system: Raji, human Burkitts lymphoma cells; assay: Cell-MTS cellular proliferation assay, Raji; format: cell-based; conditions: Homo sapiens, 168 hr incubation
Description: as §1, §2, §3

[4] = test system: NCI-H460, human non-small cell lung cancer cells; assay: Cell-MTS cellular proliferation assay, NCI-H460; format: cell-based; conditions: Homo sapiens, 168 hr incubation
Description: as §1, §2, §3

Structure (SMILES) | IC50 [1] | IC50 [2] | IC50 [3] | IC50 [4]
Cc1cc(-c2cc3c(cc2OCC2CC2)CN(C)S3(=O)=O)cn(C)c1=O [Example 5, 5-[5-(cyclopropylmethoxy)-2-methyl-1,1-dioxo-3H-1,2-benzothiazol-6-yl]-1,3-dimethylpyridin-2-one] | ≤ 500 nM | ≤ 500 nM | 500 to 5000 nM | > 5000 nM
CN1Cc2cc(OCC3CC3)c(-c3cn(C)c(=O)c4ccccc34)cc2S1(=O)=O [Example 6, 4-[5-(cyclopropyhnethoxy)-2-methyl-1,1-dioxo-3H-1,2-benzothiazol-6-yl]-2-methylisoquinolin-1-one] | ≤ 500 nM | ≤ 500 nM | 500 to 5000 nM | 500 to 5000 nM
CCN1Cc2cc(OCC3CC3)c(-c3cn(C)c(=O)c4ccccc34)cc2S1(=O)=O [Example 7, 4-[5-(cyclopropylmethoxy)-2-ethyl-1,1-dioxo-3H-1,2-benzothiazol-6-yl]-2-methylisoquinolin-1-one] | ≤ 500 nM | ≤ 500 nM | ≤ 500 nM | 500 to 5000 nM
CCN1Cc2cc(OCC3CC3)c(-c3cc(C)c(=O)n(C)c3)cc2S1(=O)=O [Example 8, 5-[5-(cyclopropylmethoxy)-2-ethyl-1,1-dioxo-3H-1,2-benzothiazol-6-yl]-1,3-dimethylpyridin-2-one] | ≤ 500 nM | ≤ 500 nM | 500 to 5000 nM | 500 to 5000 nM
Cc1cc(-c2cc3c(cc2OCC(F)(F)F)CN(C)S3(=O)=O)cn(C)c1=O [Example 9, 1,3-dimethyl-5-[2-methyl-1,1-dioxo-5-(2,2,2-trifluoroethoxy)-3H-1,2-benzothiazol-6-yl]pyridine-2-one] | ≤ 500 nM | ≤ 500 nM | 500 to 5000 nM | > 5000 nM
CN1Cc2cc(OCC(F)(F)F)c(-c3cn(C)c(=O)c4ccccc34)cc2S1(=O)=O [Example 10, 2-methyl-4-[2-methyl-1,1-dioxo-5-(2,2,2-trifluoroethoxy)-3H-1,2-benzothiazol-6-yl]isoquinolin-1-one] | ≤ 500 nM | ≤ 500 nM | 500 to 5000 nM | 500 to 5000 nM
Cc1cc(-c2cc3c(cc2Oc2ccc(F)cc2F)CN(C)S3(=O)=O)cn(C)c1=O [Example 11, 5-[5-(2,4-difluorophenoxy)-2-methyl-1,1-dioxo-3H-1,2-benzothiazol-6-yl]-1,3-dimethylpyridin-2-one] | ≤ 500 nM | ≤ 500 nM | ≤ 500 nM | > 5000 nM
Cn1cc(-c2cc3c(cc2OCC2CC2)CCN3S(C)(=O)=O)c2ccccc2c1=O [Example 13, 4-[5-(cyclopropylmethoxy)-1-methylsulfonyl-2,3-dihydroindol-6-yl]-2-methylisoquinolin-1-one] | ≤ 500 nM | ≤ 500 nM | ≤ 500 nM | 500 to 5000 nM
CCS(=O)(=O)N1CCc2cc(OCC3CC3)c(-c3cn(C)c(=O)c4ccccc34)cc21 [Example 14, 4-[5-(cyclopropylmethoxy)-1-ethylsulfonyl-2,3-dihydroindol-6-yl]-2-methylisoquinolin-1-one] | ≤ 500 nM | ≤ 500 nM | ≤ 500 nM | 500 to 5000 nM
Cc1cc(-c2cc3c(cc2OCC2CC2)CCN3S(C)(=O)=O)cn(C)c1=O [Example 15, 5-[5-(cyclopropylmethoxy)-1-methylsulfonyl-2,3-dihydroindol-6-yl]-1,3-dimethylpyridin-2-one] | ≤ 500 nM | ≤ 500 nM | ≤ 500 nM | > 5000 nM
CCS(=O)(=O)N1CCc2cc(OCC3CC3)c(-c3cc(C)c(=O)n(C)c3)cc21 [Example 16, 5-[5-(cyclopropylmethoxy)-1-ethylsulfonyl-2,3-dihydroindol-6-yl]-1,3-dimethylpyridin-2-one] | ≤ 500 nM | ≤ 500 nM | ≤ 500 nM | > 5000 nM
Cn1cc(-c2cc(NS(C)(=O)=O)c3ccn(Cc4ccccc4)c3c2)c2ccccc2c1=O [Example 17, N-[1-benzyl-6-(2-methyl-1-oxoisoquinolin-4-yl)indol-4-yl]methanesulfonamide] | ≤ 500 nM | ≤ 500 nM | ≤ 500 nM | 500 to 5000 nM
Cc1cc(-c2cc(NS(C)(=O)=O)c3ccn(Cc4ccccc4)c3c2)cn(C)c1=O [Example 18, N-[1-benzyl-6-(1,5-dimethyl-6-oxopyridin-3-yl)indol-4-yl]methanesulfonamide] | ≤ 500 nM | ≤ 500 nM | ≤ 500 nM | 500 to 5000 nM
Cc1cc(-c2cc(NS(C)(=O)=O)c3c(c2)N(Cc2ccccc2)CC3)cn(C)c1=O [Example 19, N-[1-benzyl-6-(1,5-dimethyl-6-oxopyridin-3-yl)-2,3-dihydroindol-4-yl]methanesulfonamide] | ≤ 500 nM | ≤ 500 nM | ≤ 500 nM | 500 to 5000 nM
Cn1cc(-c2cc(NS(C)(=O)=O)c3c(c2)N(Cc2ccccc2)CC3)c2ccccc2c1=O [Example 20, N-[1-benzyl-6-(2-methyl-1-oxoisoquinolin-4-yl)-2,3-dihydroindol-4-yl]methanesulfonamide] | ≤ 500 nM | ≤ 500 nM | ≤ 500 nM | 500 to 5000 nM
Cc1cc(-c2cc(S(C)(=O)=O)cc3cc(C4CC4)oc23)cn(C)c1=O [Example 23, 5-(2-cyclopropyl-5-methylsulfonyl-1-benzofuran-7-yl)-1,3-dimethylpyridin-2-one] | ≤ 500 nM | ≤ 500 nM | 500 to 5000 nM | > 5000 nM
Cn1cc(-c2cc(S(C)(=O)=O)cc3cc(C4CC4)oc23)c2ccccc2c1=O [Example 24, 4-(2-cyclopropyl-5-methylsulfonyl-1-benzofuran-7-yl)-2-methylisoquinolin-1-one] | ≤ 500 nM | ≤ 500 nM | ≤ 500 nM | 500 to 5000 nM
Cn1cc(-c2cc(S(C)(=O)=O)cc3cc(-c4ccccc4)oc23)c2ccccc2c1=O [Example 26, 2-methyl-4-(5-methylsulfonyl-2-phenyl-1-benzofuran-7-yl)isoquinolin-1-one] | ≤ 500 nM | ≤ 500 nM | ≤ 500 nM | 500 to 5000 nM
CCS(=O)(=O)Nc1cc(-c2cc(C)c(=O)n(C)c2)cc2c1nnn2Cc1ccccc1 [Example 27, N-[1-benzyl-6-(1,5-dimethyl-6-oxopyridin-3-yl)benzotriazol-4-yl]ethanesulfonamide] | ≤ 500 nM | ≤ 500 nM | ≤ 500 nM | 500 to 5000 nM
CCS(=O)(=O)Nc1cc(-c2cc(C)c(=O)n(C)c2)cc2c1nnn2Cc1ccc(F)cc1 [Example 28, N-[6-(1,5-dimethyl-6-oxopyridin-3-yl)-1-[(4-fluorophenyl)methyl]benzotriazol-4-yl]ethanesulfonamide] | ≤ 500 nM | ≤ 500 nM | ≤ 500 nM | 500 to 5000 nM
Cn1cc(-c2cc3c(S(C)(=O)=O)nn(C)c3cc2OCC2CC2)c2ccccc2c1=O [Example 29, 4-[6-(cyclopropylmethoxy)-1-methyl-3-methylsulfonylindazol-5-yl]-2-methylisoquinolin-1-one] | ≤ 500 nM | ≤ 500 nM | ≤ 500 nM | 500 to 5000 nM
CCS(=O)(=O)c1nn(C)c2cc(OCC3CC3)c(-c3cn(C)c(=O)c4ccccc34)cc12 [Example 30, 4-[6-(cyclopropylmethoxy)-3-ethylsulfonyl-1-methylindazol-5-yl]-2-methylisoquinolin-1-one] | ≤ 500 nM | ≤ 500 nM | ≤ 500 nM | 500 to 5000 nM
Cc1cc(-c2cc(NS(C)(=O)=O)c3ncn(Cc4ccccc4)c3c2)cn(C)c1=O [Example 31, N-[1-benzyl-6-(1,5-dimethyl-6-oxopyridin-3-yl)benzimidazol-4-yl]methanesulfonamide] | ≤ 500 nM | ≤ 500 nM | ≤ 500 nM | 500 to 5000 nM

— patent US10807982B2, “Bromodomain inhibitors” (CELGENE QUANTICEL RESEARCH, INC., priority 2015, dated 2020)
